According to US12263175B2, “Optimised dosage of diaminophenothiazines in populations” (WisTa Laboratories Ltd., priority 2018, dated 2025):

Assay: Treatment-emergent adverse events, three Phase 3 double-blind studies, LMTM pooled safety population
Type: in vivo, human
Excerpt: Three Phase 3, double-blind, controlled studies of LMTM have been completed (one each in subjects with mild and mild to moderate AD and one in subjects with bvFTD). Results of the AD studies have been published (Gauthier et al., 2016; Wilcock et al., 2018).
In these three studies, 1897 subjects received at least one dose of LMTM (Safety Population [Five additional subjects with AD, participating at one site in Study TRx-237-005, received a dose of study drug but were excluded from all analyses due to GCP violations], 1679 subjects with AD and 218 subjects with bvFTD). Of these, 860 subjects received the control (LMTM 8 mg/day, 750 with AD and 110 with bvFTD) and 1037 subjects received at least one dose of LMTM in the higher doses of 150 to 250 mg/day (929 with AD and 108 with bvFTD).
The incidence of the most common TEAEs are summarised by dose in the following Table EX1. This includes TEAEs that occurred at an incidence of ≥2.0% either in subjects randomised to LMTM 8 mg/day or higher doses (150 to 250 mg/day). The subset of TEAEs that were severe in intensity are also included.
The TEAEs are further analysed by using groupings of related MedDRA (Medical Dictionary for Regulatory Activities) preferred terms to better estimate the incidence of potentially treatment related adverse events. The incidence of all groupings for subjects categorised by dose (8 mg/day versus higher doses of 150 to 250 mg/day) is shown in the following Table EX2: […]

[1] = Higher Doses (150-250 mg/day) (N = 1037)
[2] = Higher Doses (150-250 mg/day) (N = 1037), All
[3] = Higher Doses (150-250 mg/day) (N = 1037), Severe Intensity

## CN(C)c1ccc2c(c1)Sc1cc(N(C)C)ccc1N2 [LMTM, leuco-methylthioninium bis(hydromethanesulfonate)]
[1]
  Grouped TEAE incidence: Affective/Anxiety Symptoms: 55 (5.3%) n (%)
  Grouped TEAE incidence: Anaemia: 219 (21.1%) n (%)
  Grouped TEAE incidence: Behavioral Symptoms: 118 (11.4%) n (%)
  Grouped TEAE incidence: Falls and Related Terms: 202 (19.5%) n (%)
  Grouped TEAE incidence: Hepatic Function Impairment: 34 (3.3%) n (%)
  Grouped TEAE incidence: Hypersensitivity: 63 (6.1%) n (%)
  Grouped TEAE incidence: Ischaemic Events, Inclusive of Myocardial Infarction: 35 (3.4%) n (%)
  Grouped TEAE incidence: Psychotic Symptoms: 34 (3.3%) n (%)
  Grouped TEAE incidence: Renal Function Impairment: 42 (4.1%) n (%)
  Grouped TEAE incidence: Renal and Urinary Disorders (Including Infections): 326 (31.4%) n (%)
  Grouped TEAE incidence: Sleep Disorders: 48 (4.6%) n (%)
  Grouped TEAE incidence: Targeted Gastrointestinal Events: 401 (38.7%) n (%)
[2]
  No. (%) of Subjects Reporting at Least One TEAE: 902 (87.0%) n (%)
  TEAE incidence: Abdominal pain: 30 (2.9%) n (%)
  TEAE incidence: Abdominal pain upper: 21 (2.0%) n (%)
  TEAE incidence: Agitation: 61 (5.9%) n (%)
  TEAE incidence: Anaemia: 59 (5.7%) n (%)
  TEAE incidence: Anxiety: 39 (3.8%) n (%)
  TEAE incidence: Arthralgia: 31 (3.0%) n (%)
  TEAE incidence: Atrial fibrillation: 10 (1.0%) n (%)
  TEAE incidence: Back pain: 44 (4.2%) n (%)
  TEAE incidence: Blood creatine phosphokinase increased: 31 (3.0%) n (%)
  TEAE incidence: Blood folate decreased: 76 (7.3%) n (%)
  TEAE incidence: Bronchitis: 19 (1.8%) n (%)
  TEAE incidence: Cerebral microhaemorrhage: 16 (1.5%) n (%)
  TEAE incidence: Confusional state: 45 (4.3%) n (%)
  TEAE incidence: Constipation: 24 (2.3%) n (%)
  TEAE incidence: Contusion: 15 (1.4%) n (%)
  TEAE incidence: Cough: 42 (4.1%) n (%)
  TEAE incidence: Decreased appetite: 39 (3.8%) n (%)
  TEAE incidence: Dehydration: 18 (1.7%) n (%)
  TEAE incidence: Depression: 37 (3.6%) n (%)
  TEAE incidence: Diarrhoea: 278 (26.8%) n (%)
  TEAE incidence: Dizziness: 64 (6.2%) n (%)
  TEAE incidence: Dysuria: 75 (7.2%) n (%)
  TEAE incidence: Fall: 78 (7.5%) n (%)
  TEAE incidence: Fatigue: 38 (3.7%) n (%)
  TEAE incidence: Folate deficiency: 45 (4.3%) n (%)
  TEAE incidence: Haemoglobin decreased: 34 (3.3%) n (%)
  TEAE incidence: Hallucination: 21 (2.0%) n (%)
  TEAE incidence: Headache: 61 (5.9%) n (%)
  TEAE incidence: Hypertension: 22 (2.1%) n (%)
  TEAE incidence: Insomnia: 32 (3.1%) n (%)
  TEAE incidence: Laceration: 14 (1.4%) n (%)
  TEAE incidence: Micturition urgency: 35 (3.4%) n (%)
  TEAE incidence: Nasopharyngitis: 43 (4.1%) n (%)
  TEAE incidence: Nausea: 86 (8.3%) n (%)
  TEAE incidence: Oedema peripheral: 20 (1.9%) n (%)
  TEAE incidence: Pain in extremity: 17(1.6%) n (%)
  TEAE incidence: Pollakiuria: 71 (6.8%) n (%)
  TEAE incidence: Rash: 30 (2.9%) n (%)
  TEAE incidence: Suicidal ideation: 30 (2.9%) n (%)
  TEAE incidence: Syncope: 28 (2.7%) n (%)
  TEAE incidence: Tremor: 13 (1.3%) n (%)
  TEAE incidence: Upper respiratory tract infection: 34 (3.3%) n (%)
  TEAE incidence: Urinary incontinence: 63 (6.1%) n (%)
  TEAE incidence: Urinary tract infection: 116 (11.2%) n (%)
  TEAE incidence: Vitamin B12 decreased: 21 (2.0%) n (%)
  TEAE incidence: Vomiting: 80 (7.7%) n (%)
  TEAE incidence: Weight decreased: 39 (3.8%) n (%)
[3]
  No. (%) of Subjects Reporting at Least One TEAE: 126 (12.2%) n (%)
  TEAE incidence: Abdominal pain: 1 (0.1%) n (%)
  TEAE incidence: Abdominal pain upper: 0 n (%)
  TEAE incidence: Agitation: 7 (0.7%) n (%)
  TEAE incidence: Anaemia: 0 n (%)
  TEAE incidence: Anxiety: 2 (0.2%) n (%)
  TEAE incidence: Arthralgia: 1 (0.1%) n (%)
  TEAE incidence: Atrial fibrillation: 2 (0.2%) n (%)
  TEAE incidence: Back pain: 2 (0.2%) n (%)
  TEAE incidence: Blood creatine phosphokinase increased: 0 n (%)
  TEAE incidence: Blood folate decreased: 0 n (%)
  TEAE incidence: Bronchitis: 0 n (%)
  TEAE incidence: Cerebral microhaemorrhage: 0 n (%)
  TEAE incidence: Confusional state: 2 (0.2%) n (%)
  TEAE incidence: Constipation: 1 (0.1%) n (%)
  TEAE incidence: Contusion: 0 n (%)
  TEAE incidence: Cough: 0 n (%)
  TEAE incidence: Decreased appetite: 1 (0.1%) n (%)
  TEAE incidence: Dehydration: 2 (0.2%) n (%)
  TEAE incidence: Depression: 2 (0.2%) n (%)
  TEAE incidence: Diarrhoea: 14 (1.4%) n (%)
  TEAE incidence: Dizziness: 2 (0.2%) n (%)
  TEAE incidence: Dysuria: 1 (0.1%) n (%)
  TEAE incidence: Fall: 7 (0.7%) n (%)
  TEAE incidence: Fatigue: 1 (0.1%) n (%)
  TEAE incidence: Folate deficiency: 0 n (%)
  TEAE incidence: Haemoglobin decreased: 0 n (%)
  TEAE incidence: Hallucination: 4 (0.4%) n (%)
  TEAE incidence: Headache: 3 (0.3%) n (%)
  TEAE incidence: Hypertension: 1 (0.1%) n (%)
  TEAE incidence: Insomnia: 0 n (%)
  TEAE incidence: Laceration: 1 (0.1%) n (%)
  TEAE incidence: Micturition urgency: 0 n (%)
  TEAE incidence: Nasopharyngitis: 0 n (%)
  TEAE incidence: Nausea: 1 (0.1%) n (%)
  TEAE incidence: Oedema peripheral: 0 n (%)
  TEAE incidence: Pain in extremity: 0 n (%)
  TEAE incidence: Pollakiuria: 2 (0.2%) n (%)
  TEAE incidence: Rash: 0 n (%)
  TEAE incidence: Suicidal ideation: 0 n (%)
  TEAE incidence: Syncope: 5 (0.5%) n (%)
  TEAE incidence: Tremor: 0 n (%)
  TEAE incidence: Upper respiratory tract infection: 0 n (%)
  TEAE incidence: Urinary incontinence: 1 (0.1%) n (%)
  TEAE incidence: Urinary tract infection: 3 (0.3%) n (%)
  TEAE incidence: Vitamin B12 decreased: 0 n (%)
  TEAE incidence: Vomiting: 3 (0.3%) n (%)
  TEAE incidence: Weight decreased: 0 n (%)
LMTM 8 mg/day (N = 860)
  Grouped TEAE incidence: Affective/Anxiety Symptoms: 60 (7.0%) n (%)
  Grouped TEAE incidence: Anaemia: 111 (12.9%) n (%)
